Results taken from ChEMBL document CHEMBL1777797, “Macrocyclic lactams as potent Hsp90 inhibitors with excellent tumor exposure and extended biomarker activity” (Bioorg Med Chem Lett, 2011).
≈ marks a conversion by molar mass, not a printed value.

Assays:
[1] = Solubility of the compound; type: physicochemical
Heat shock protein HSP90 = Heat shock protein HSP90 (Homo sapiens, UniProt P07900+P08238); test: Inhibition of HSP90 in human HCT-116 cells expressing V-Src-firefly luciferase fusion protein after 3 to 6 hrs; type: cell-based
HCT-116 = test: Antiproliferative activity against human HCT116 cells; type: functional, cell-based
[2] = Half life in rat liver microsomes; type: ADME, Microsome
[3] = Inhibition of HSP90 by fluorescence polarization assay
A-375 = test: Antiproliferative activity against human A375 cells
BT-474 = test: Antiproliferative activity against human BT474 cells
[4] = Antiproliferative activity against human WM266.4 cells; conditions: wm 266-4
A549 = test: Antiproliferative activity against human A549 cells
MDA-MB-361 = test: Antiproliferative activity against human MDA-MB-361 cells
DU-145 = test: Antiproliferative activity against human DU145 cells
T98G = test: Antiproliferative activity against human T98G cells
[5] = Antiproliferative activity against human U87MG cells; conditions: u-87mg atcc
KB = test: Antiproliferative activity against human KB cells
[6] = Antiproliferative activity against human KB 8.5 cells
[7] = Antiproliferative activity against P-gp overexpressing human KBV1 cells; conditions: kb-v1
[8] = Plasma concentration human MDA-MB-361 xenograft in vivo model at 50 mg/kg, po measured at 6 hrs post dose; type: ADME, organism-based; parameters: dose 50 mg/kg, route oral
[9] = Drug level in tumor of human MDA-MB-361 xenograft in vivo model at 50 mg/kg, po measured at 6 hrs post dose; type: ADME, organism-based, Neoplasm; parameters: dose 50 mg/kg, route oral; conditions: read-out: Drug uptake
[10] = Plasma concentration in human MDA-MB-361 xenograft in vivo model at 50 mg/kg, po measured at 24 hrs post dose; type: ADME, organism-based; parameters: dose 50 mg/kg, route oral
[11] = Drug level in tumor of human MDA-MB-361 xenograft in vivo model at 50 mg/kg, po measured at 24 hrs post dose; type: ADME, organism-based, Neoplasm; parameters: dose 50 mg/kg, route oral; conditions: read-out: Drug uptake
NCI-H1975 = test: Antiproliferative activity against human NCI-H1975 cells

Structure (SMILES) | solubility [1] | IC50 (Heat shock protein HSP90) | EC50 (HCT-116) | half-life [2] | IC50 [3] | other results
Cc1c2c(n3c1CCCNC[C@H](C)Nc1cc-3ccc1C(N)=O)CC(C)(C)CC2=O | > 100 µg/mL |  |  |  |  | 
Cc1c2c(n3c1CCCN(C)C(=O)[C@H](C)Nc1cc-3ccc1C(N)=O)CC(C)(C)CC2=O | 34 µg/mL (≈ 77.9 µM) | 60 nM | 80 nM | > 30 min |  | 
CC(=O)N1CCc2c(C)c3c(n2-c2ccc(C(N)=O)c(c2)N[C@@H](C)CC1)CC(C)(C)CC3=O |  | 108 nM |  |  | 111 nM | 
Cc1c2c(n3c1CCCN[C@H](C)CNc1cc-3ccc1C(N)=O)CC(C)(C)CC2=O | > 100 µg/mL | 47 nM | 43 nM | > 30 min | 91 nM | 
Cc1c2c(n3c1CCN(C(=O)CN)CC[C@H](C)Nc1cc-3ccc1C(N)=O)CC(C)(C)CC2=O |  | 917 nM | 1010 nM |  | 90 nM | 
Cc1c2c(n3c1CCN(C(=O)CCN)CC[C@H](C)Nc1cc-3ccc1C(N)=O)CC(C)(C)CC2=O | > 100 µg/mL | 6183 nM | 4890 nM | > 30 min | 200 nM | 
Cc1c2c(n3c1CCN(C(=O)[C@@H](C)N)CC[C@H](C)Nc1cc-3ccc1C(N)=O)CC(C)(C)CC2=O | > 100 µg/mL |  |  |  | 119 nM | 
Cc1c2c(n3c1CCN(C(=O)[C@H](C)N)CC[C@H](C)Nc1cc-3ccc1C(N)=O)CC(C)(C)CC2=O | > 100 µg/mL |  |  |  |  | 
CC(=O)NCC(=O)N1CCc2c(C)c3c(n2-c2ccc(C(N)=O)c(c2)N[C@@H](C)CC1)CC(C)(C)CC3=O | 5 µg/mL (≈ 9.85 µM) | 674 nM | 1550 nM | > 30 min | 140 nM | 
Cc1c2c(n3c1CCN(C(=O)CN(C)C)CC[C@H](C)Nc1cc-3ccc1C(N)=O)CC(C)(C)CC2=O | > 100 µg/mL | 109 nM | 168 nM | 3 min | 140 nM | 
CC(=O)N1CCCc2c(C)c3c(n2-c2ccc(C(N)=O)c(c2)N[C@@H](C)C1)CC(C)(C)CC3=O | 69 µg/mL (≈ 153 µM) | 111 nM | 194 nM | 11 min | 219 nM | 
CC(=O)N1CCCc2c(C)c3c(n2-c2ccc(C(N)=O)c(c2)NC[C@H]1C)CC(C)(C)CC3=O | > 100 µg/mL | 1159 nM | 1900 nM | 12 min | 953 nM | 
Cc1c2c(n3c1CCCN(C(=O)CN(C)C)[C@H](C)CNc1cc-3ccc1C(N)=O)CC(C)(C)CC2=O | > 100 µg/mL | > 5000 nM | 3260 nM | > 30 min | > 5000 nM | 
Cc1c2c(n3c1CCCN(C(=O)[C@@H](C)N)[C@H](C)CNc1cc-3ccc1C(N)=O)CC(C)(C)CC2=O | > 100 µg/mL | > 5000 nM | > 5000 nM | > 30 min | 555 nM | 
Cc1c2c(n3c1CC(=O)NCCCNc1cc-3ccc1C(N)=O)CC(C)(C)CC2=O |  |  |  |  | 6830 nM | 
Cc1c2c(n3c1CC(=O)NCC[C@H](C)Nc1cc-3ccc1C(N)=O)CC(C)(C)CC2=O | > 100 µg/mL | 522 nM | 815 nM | > 30 min | 214 nM | 
Cc1c2c(n3c1CC(=O)N(C)CC[C@H](C)Nc1cc-3ccc1C(N)=O)CC(C)(C)CC2=O | > 100 µg/mL | 160 nM | 247 nM | > 30 min | 156 nM | 
Cc1c2c(n3c1CC(=O)N(C(C)C)CC[C@H](C)Nc1cc-3ccc1C(N)=O)CC(C)(C)CC2=O | > 100 µg/mL | 278 nM | 865 nM | 12 min | 608 nM | 
COCCN1CC[C@H](C)Nc2cc(ccc2C(N)=O)-n2c(c(C)c3c2CC(C)(C)CC3=O)CC1=O | > 100 µg/mL | 108 nM | 359 nM | > 30 min | 222 nM | 
Cc1c2c(n3c1CC(=O)N(CCN(C)C)CC[C@H](C)Nc1cc-3ccc1C(N)=O)CC(C)(C)CC2=O | > 100 µg/mL | 249 nM | 330 nM | > 30 min | 191 nM | 
CC(=O)NCCN1CC[C@H](C)Nc2cc(ccc2C(N)=O)-n2c(c(C)c3c2CC(C)(C)CC3=O)CC1=O | > 100 µg/mL | > 5000 nM | > 5000 nM | > 30 min | 407 nM | 
Cc1c2c(n3c1CCCNC(=O)[C@H](C)Nc1cc-3ccc1C(N)=O)CC(C)(C)CC2=O | > 100 µg/mL | 79 nM |  | > 30 min | 82 nM | IC50 (A-375): 23 nM; IC50 (BT-474): 23 nM; IC50 [4]: 92 nM; IC50 (A549): 23 nM; IC50 (MDA-MB-361): 111 nM; IC50 (DU-145): 45 nM; IC50 (T98G): 42 nM; IC50 [5]: 80 nM; IC50 (KB): 22 nM; IC50 [6]: 49 nM; IC50 [7]: > 1000 nM; concentration at 6 h [8]: 146 ng/mL; concentration at 6 h [9]: 2130 ng/g; concentration at 24 h [10]: 8 ng/mL; concentration at 24 h [11]: 1270 ng/g; IC50 (NCI-H1975): 47 nM
Cc1c2c(n3c1CCCNC(=O)[C@@H](C)Nc1cc-3ccc1C(N)=O)CC(C)(C)CC2=O |  | 123 nM | 175 nM |  | 268 nM | 
Cc1c2c(n3c1CCCN(CCN)C(=O)[C@H](C)Nc1cc-3ccc1C(N)=O)CC(C)(C)CC2=O | > 100 µg/mL | > 20000 nM | > 20000 nM |  | 1180 nM | 
CC(=O)NCCN1CCCc2c(C)c3c(n2-c2ccc(C(N)=O)c(c2)N[C@@H](C)C1=O)CC(C)(C)CC3=O | > 100 µg/mL | 15771 nM | 17900 nM | > 30 min | 240 nM | 
Cc1c2c(n3c1CCCNC(=O)C[C@H](C)Nc1cc-3ccc1C(N)=O)CC(C)(C)CC2=O |  | 1842 nM | 3330 nM |  | 337 nM | 
